This assay relates to T cell proliferation in mouse spleen cell mixed lymphocyte cultures. The assay is described as follows: Mixed Lymphocyte Reaction (MLR) assay. Type of assay: cell-based, mouse (Balb/c responder, C57B1/6 stimulator). An excerpt:
The pharmacologic assays performed to determine the immunomodulatory effects of the experimental compounds in vitro include the Mixed Lymphocyte Reaction (MLR) and the ConA blastogenesis assay. These assays were used to determine the inhibitory effects of the compounds of the invention on T lymphocyte activation and proliferation. Since inflammation at the cellular level is characterized by T lymphocyte recruitment, activation and proliferation, these assays are appropriate to use as screens for novel compounds having therapeutic potential in the treatment of disorders in which inflammatory mechanisms are involved.
The MLR is a classical assay used to measure T cell function by studying the proliferative response of T cells which are activated in vitro by genetically disparate stimulator cells. This is accomplished by co-culturing spleen cells from two different strains of mice. Splenic T cell proliferation occurs as a result of cellular activation signals generated by the ongoing cellular interactions.
Balb/c mice were euthanised by cervical dislocation and their spleens removed. Single cell suspensions of the spleens were prepared in culture medium (hepes buffered RPMI-1640 supplemented with 10% fetal calf serum, 2mM glutamine, 500 units penicillin/ streptomycin, and 4×10^-5 M 2-mercaptoethanol) using a Teflon pestle. The cells were centrifuged at 1500 rpm and the pellets resuspended in ACT (0.15M tris, 0.14M ammonium chloride, pH 7.2) in order to lyse the red blood cells. After a 5 minute incubation in a 37 C. waterbath, the cells were resuspended in culture medium and counted. C57B1/6 spleen cells which were used as stimulator cells, were also prepared by this method. The stimulator cells were treated with 100 ug/ml of mitomycin c for 1 hour at 37 C. (to inhibit stimulatory cell proliferation) and were then washed 5 times in culture medium. The proliferative responses were measured by culturing 2.5×10^5 responder cells with 5×10^5 stimulatory cells in 96 well microtiter plates in the presence or absence of various doses of test compounds or vehicle (DMSO). Syngeneic control cultures using mitomycin c treated Balb/c spleen cells as stimulator cells were also run. All cultures were run in triplicate.
Solutions of compounds of the present invention in DMSO were prepared at a stock concentration of 120 Mm. Dilutions were made in culture medium to the following concentrations: 3, 10, 30, 100, and 300 uM. The vehicle (DMSO) was used as a negative control.
After incubation of for 5 days at 37 C. with 5% CO2, the amount of cell proliferation was measured by adding 20 ul of MTT (3-[4,5-dimethylthiazol-2-yl]-2,5diphenyl-tetrazolium bromide) (10 mg/ml in phosphate buffered saline) to each well. Plates were incubated for 4 hours at 37 C., after which 180 ul of 10% sodium dodecyl sulphate in phosphate buffered saline was added. After an overnight incubation, the optical density (OD) of each well was read on a Molecular Devices microplate reader at 570-650 nm. The results were determined by calculating the difference between the means of the allogeneic cultures and the means of the syngenic cultures for each test article concentration. Differences of the test article groups were compared to the control group and the percent change from the control was determined.

The structures appear in SMILES notation.

One molecule from patent publication US5298494A, “Monosaccharides having anti-proliferation and anti-inflammatory activity, compositions and uses thereof” (Greenwich Pharmaceuticals Incorporated, priority 1993, dated 1994) can be followed below.

Turning to `CCCCCCCCCCCCCCCOCC(O)C1OC2OC(C)(C)OC2C1O` [IIId, 1,2-O-Isopropylidene-6-O-pentadecyl-α-D-glucofuranose], the “Mean O.D. Allogenic” value reads like this: (3 um) 0.210 O.D; (10 um) 0.197 O.D; (30 um) 0.104 O.D; (100 um) 0.021 O.D; (300 um) 0.015 O.D. The “Mean O.D. Syngeneic” value is, setting by setting: (3 um) 0.138 O.D; (10 um) 0.128 O.D; (30 um) 0.032 O.D; (100 um) 0.019 O.D. Where the note is “Mus musculus, Lymphocyte, 3 um, read-out: % Change From Control, MLR”, the inhibition at 3 µM is 13%. Further, the inhibition at 10 µM (Mus musculus, Lymphocyte, 10 um, read-out: % Change From Control, MLR) was 17%. Besides, the inhibition at 30 µM (Mus musculus, Lymphocyte, 30 um, read-out: % Change From Control, MLR) is 13%. Where the note is “Mus musculus, Lymphocyte, 100 um, read-out: % Change From Control, MLR”, the inhibition at 100 µM turned out to be 98%.
